Reference: PubChem BioAssay AID2060611 (Molecular Pharmacology Branch, DTP, NCI, 2025)

System: 628569-122-R-J1-PDC complex spheroid viability
Assay: Anticancer human tumor 628569-122-R-J1-PDC patient-derived head and neck squamous carcinoma cell line growth inhibition [CLK]
Conditions: for IC50: curve of first compound; for viability, T/C: stronger effect = lower value
Source text: A high-throughput screen of multi-cell type tumor spheroids was designed to identify active combinations of […] and targeted small molecules. Complex spheroids include a stromal component modeled by human endothelial cells (HUVEC) and fibroblasts modeled by human mesenchymal stem cells (MSCs). The concentration ranges selected for each drug and investigational agent were based upon clinically achievable concentrations if the clinical Cmax of the agent was known.
Compounds. The drugs and investigational agents: cirtuvivint (SM08502; NSC835563), CC-671 (NSC850746), vemurafenib (NSC761431), tapotoclax (NSC804041), sotorasib (NSC818433), adagrasib (NSC831453), MRTX-1133 (NSC836407), BAY2416964 (NSC825713), copanlisib (NSC816437), inavolisib (NSC800729), abemaciclib (NSC768073), osimertinib (NSC779217), entinostat (NSC756642), eltanexor (KPT-8602, NSC794443), venetoclax (NSC766270), ceralasertib (NSC777638), bortezomib (NSC756655), olaparib (NSC753686), talazoparib (NSC767125), alisertib (NSC759677), peposertib (NSC802822), gemcitabine (NSC613327), 5-fluorouracil (NSC19893), SN-38 (NSC673596), oxaliplatin (NSC266046), paclitaxel (NSC125973), and doxorubicin (NSC123127), were obtained from the National Cancer Institute (NCI) Developmental Therapeutics Program Chemical Repository. The FDA-approved anticancer drug set is available from the Developmental Therapeutics Program at https://dtp.cancer.gov/organization/dscb/obtaining/available plates.htm. […] The stock solutions were prepared in dimethyl sulfoxide (DMSO, Sigma-Aldrich, St. Louis, MO, cat. D2650), except for the platinum complexes which were prepared in saline (Quality Biological, Gaithersburg, MD, cat. 114-055-101), at 800-fold the tested concentration and stored at -70 degrees C prior to their use. All drugs and investigational agents were tested over a range starting from a high concentration at or near the clinical Cmax and decreasing in half-log increments. If the clinical Cmax for an agent had not been determined, the highest concentration tested was 10 microM.
Cell Culture. All cells were maintained in an incubator at 37 degrees C and 5% CO2 with 95% humidity. The PDC lines were cultured according to standard operating procedures established by the NCI PDMR. Briefly, all PDCs were thawed and cultured in Matrigel-coated flasks prepared with a working solution of 1X Ham's F-12 nutrient mix, without supplementation (Invitrogen, Waltham, MA, cat. 11765054), 100 U/mL penicillin-streptomycin (Invitrogen, cat. 15140122), and 2.5% Matrigel (Corning Inc., Corning, NY, cat. 354248) for the first three passages. The 947758-054-R-J2-PDC line was cultured in 6B/Colon 1A media, which includes advanced DMEM/F-12 (Thermo Fisher Scientific, cat. 12634028), 10 mM HEPES (Thermo Fisher Scientific, cat. 15630080), 1X GlutaMAX supplement (Thermo Fisher Scientific, cat. 35050061), 0.1 mg/mL primocin (InvivoGen, cat. ant-pm-2), 10% defined fetal bovine serum, heat inactivated (HyClone Laboratories Inc., cat. SH30070.03HI), 1.25 mM N-Acetyl-L-cysteine (Sigma-Aldrich, cat. A9165), 10 mM nicotinamide (Sigma-Aldrich, cat. N0636), 1X B-27 supplement (Thermo Fisher Scientific, cat. 17504044), 1X N-2 supplement (Thermo Fisher Scientific, cat. 17502048), and 10 microM Y-27632 dihydrochloride (Tocris Bioscience, cat. 1254). The 876862-298-R-J1-PDC was cultured in 6E media, which includes all 6B/Colon 1A media components plus 50% L-WRN conditioned media (ATCC, cat. CRL-3276), 50 ng/mL recombinant human EGF recombinant protein (hEGF; Thermo Fisher Scientific, cat. PHG0311), 10 ng/mL recombinant human fibroblast growth factor 10 (hGFG-10; PeproTech, cat. 100-26), 1 ng/mL recombinant human fibroblast growth factor 2 (hFGF-2; PeproTech, cat. 100-18B), and 1 µM prostaglandin E2 (PGE2; Tocris, cat. 2296). The 227483-062-R1-J1-PDC line was cultured in Panc media, containing all 6E components except hFGF-2, with the addition of 500 nM SB-431542 (Selleckchem, cat. S1067) and 10 nM gastrin (Tocris, cat. 3006). […]

[1] = second compound 0.0316 µM, first compound 0.0316 µM
[2] = second compound 0.0316 µM, first compound 0.1 µM
[3] = second compound 0.0316 µM, first compound 0.316 µM
[4] = second compound 0.0316 µM, first compound 1 µM
[5] = second compound 0.1 µM, first compound 0.0316 µM
[6] = second compound 0.1 µM, first compound 0.1 µM
[7] = second compound 0.1 µM, first compound 0.316 µM
[8] = second compound 0.1 µM, first compound 1 µM
[9] = second compound 0.316 µM, first compound 0.0316 µM
[10] = second compound 0.316 µM, first compound 0.1 µM
[11] = second compound 0.316 µM, first compound 0.316 µM
[12] = second compound 0.316 µM, first compound 1 µM
[13] = second compound 1 µM, first compound 0.0316 µM
[14] = second compound 1 µM, first compound 0.1 µM
[15] = second compound 1 µM, first compound 0.316 µM
[16] = second compound 1 µM, first compound 1 µM
[17] = second compound 3.16 µM, first compound 0.0316 µM
[18] = second compound 3.16 µM, first compound 0.1 µM
[19] = second compound 3.16 µM, first compound 0.316 µM
[20] = second compound 3.16 µM, first compound 1 µM
[21] = second compound 10 µM, first compound 0.0316 µM
[22] = second compound 10 µM, first compound 0.1 µM
[23] = second compound 10 µM, first compound 0.316 µM
[24] = second compound 10 µM, first compound 1 µM
[25] = second compound 0.0316 µM, first compound 0.00316 µM
[26] = second compound 0.0316 µM, first compound 0.01 µM
[27] = second compound 0.1 µM, first compound 0.00316 µM
[28] = second compound 0.1 µM, first compound 0.01 µM
[29] = second compound 0.316 µM, first compound 0.00316 µM
[30] = second compound 0.316 µM, first compound 0.01 µM
[31] = second compound 1 µM, first compound 0.00316 µM
[32] = second compound 1 µM, first compound 0.01 µM
[33] = second compound 3.16 µM, first compound 0.00316 µM
[34] = second compound 3.16 µM, first compound 0.01 µM
[35] = second compound 10 µM, first compound 0.00316 µM
[36] = second compound 10 µM, first compound 0.01 µM
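Also: spheroids exposed to agents for seven days before readout.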
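For viability, T/C in this document: 100% = DMSO vehicle control viability.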

CC(Nc1ccc2c(c1)OCCn1cc(N3C(=O)OCC3C(F)F)nc1-2)C(N)=O (stereo unspecified) + CN1CCN(c2cc(C(=O)Nc3cc4cc(-c5cnn(C)c5)ccc4cn3)ccn2)CC1
IC50 (second compound 0.0316 µM): 432 nM | IC50 (second compound 0.1 µM): 32 nM | IC50 (second compound 0.316 µM): < 31.6 nM | IC50 (second compound 1 µM): < 31.6 nM | IC50 (second compound 3.16 µM): < 31.6 nM | IC50 (second compound 10 µM): < 31.6 nM | viability, T/C [1]: 76.2% | viability, T/C [2]: 71.2% | viability, T/C [3]: 50.8% | viability, T/C [4]: 41% | viability, T/C (second compound 0.0316 µM, first compound 3.16 µM): 28.9% | viability, T/C (second compound 0.0316 µM, first compound 10 µM): 23.2% | viability, T/C [5]: 51.8% | viability, T/C [6]: 44% | viability, T/C [7]: 36.4% | viability, T/C [8]: 41.6% | viability, T/C (second compound 0.1 µM, first compound 3.16 µM): 23.2% | viability, T/C (second compound 0.1 µM, first compound 10 µM): 17.8% | viability, T/C [9]: 26.9% | viability, T/C [10]: 20.5% | viability, T/C [11]: 13.6% | viability, T/C [12]: 13.5% | viability, T/C (second compound 0.316 µM, first compound 3.16 µM): 8.04% | viability, T/C (second compound 0.316 µM, first compound 10 µM): 5.9% | viability, T/C [13]: 7.59% | viability, T/C [14]: 8.7% | viability, T/C [15]: 6.98% | viability, T/C [16]: 8.35% | viability, T/C (second compound 1 µM, first compound 3.16 µM): 6.35% | viability, T/C (second compound 1 µM, first compound 10 µM): 5.58% | viability, T/C [17]: 7.77% | viability, T/C [18]: 7.38% | viability, T/C [19]: 6.16% | viability, T/C [20]: 6.78% | viability, T/C (second compound 3.16 µM, first compound 3.16 µM): 7.18% | viability, T/C (second compound 3.16 µM, first compound 10 µM): 6.1% | viability, T/C [21]: 6.06% | viability, T/C [22]: 4.09% | viability, T/C [23]: 2.84% | viability, T/C [24]: 6.87% | viability, T/C (second compound 10 µM, first compound 3.16 µM): 3.27% | viability, T/C (second compound 10 µM, first compound 10 µM): 2.51%

CCN1CCN(Cc2ccc(Nc3ncc(F)c(-c4cc(F)c5nc(C)n(C(C)C)c5c4)n3)nc2)CC1 + CN1CCN(c2cc(C(=O)Nc3cc4cc(-c5cnn(C)c5)ccc4cn3)ccn2)CC1
IC50 (second compound 0.0316 µM): > 1000 nM | IC50 (second compound 0.1 µM): > 1000 nM | IC50 (second compound 0.316 µM): < 3.16 nM | IC50 (second compound 1 µM): < 3.16 nM | IC50 (second compound 3.16 µM): < 3.16 nM | IC50 (second compound 10 µM): < 3.16 nM | viability, T/C [25]: 91.4% | viability, T/C [26]: 85.2% | viability, T/C [1]: 73.7% | viability, T/C [2]: 79.6% | viability, T/C [3]: 132% | viability, T/C [4]: 181% | viability, T/C [27]: 72.8% | viability, T/C [28]: 55.6% | viability, T/C [5]: 64.6% | viability, T/C [6]: 75.3% | viability, T/C [7]: 96.8% | viability, T/C [8]: 157% | viability, T/C [29]: 42.6% | viability, T/C [30]: 43.2% | viability, T/C [9]: 48.1% | viability, T/C [10]: 53.1% | viability, T/C [11]: 81.8% | viability, T/C [12]: 88.4% | viability, T/C [31]: 10.7% | viability, T/C [32]: 5.74% | viability, T/C [13]: 6.1% | viability, T/C [14]: 7.58% | viability, T/C [15]: 12% | viability, T/C [16]: 12.2% | viability, T/C [33]: 9.03% | viability, T/C [34]: 6.91% | viability, T/C [17]: 7.06% | viability, T/C [18]: 8.11% | viability, T/C [19]: 10.9% | viability, T/C [20]: 11.1% | viability, T/C [35]: 9.28% | viability, T/C [36]: 1.85% | viability, T/C [21]: 3.61% | viability, T/C [22]: 4.38% | viability, T/C [23]: 8.89% | viability, T/C [24]: 4.27%

COc1c(OCCCN2CCOCC2)ccc2c3n(c(=NC(=O)c4cnc(N)nc4)nc12)CCN3 + CN1CCN(c2cc(C(=O)Nc3cc4cc(-c5cnn(C)c5)ccc4cn3)ccn2)CC1
IC50 (second compound 0.0316 µM): 21.1 nM | IC50 (second compound 0.1 µM): 9 nM | IC50 (second compound 0.316 µM): < 3.16 nM | IC50 (second compound 1 µM): < 3.16 nM | IC50 (second compound 3.16 µM): < 3.16 nM | IC50 (second compound 10 µM): < 3.16 nM | viability, T/C [25]: 77% | viability, T/C [26]: 67.5% | viability, T/C [1]: 34.4% | viability, T/C [2]: 34.8% | viability, T/C [3]: 18.3% | viability, T/C [4]: 7.77% | viability, T/C [27]: 54.5% | viability, T/C [28]: 51.3% | viability, T/C [5]: 34.6% | viability, T/C [6]: 16.8% | viability, T/C [7]: 13.2% | viability, T/C [8]: 2.93% | viability, T/C [29]: 35.2% | viability, T/C [30]: 21.1% | viability, T/C [9]: 11.8% | viability, T/C [10]: 9.4% | viability, T/C [11]: 5.28% | viability, T/C [12]: 1.37% | viability, T/C [31]: 9.4% | viability, T/C [32]: 8.16% | viability, T/C [13]: 8.92% | viability, T/C [14]: 6.58% | viability, T/C [15]: 5.37% | viability, T/C [16]: 4.98% | viability, T/C [33]: 5.32% | viability, T/C [34]: 5.77% | viability, T/C [17]: 8.53% | viability, T/C [18]: 6.16% | viability, T/C [19]: 7.48% | viability, T/C [20]: 4.29% | viability, T/C [35]: 7.43% | viability, T/C [36]: 2.01% | viability, T/C [21]: 3.89% | viability, T/C [22]: 2.57% | viability, T/C [23]: 3.58% | viability, T/C [24]: 2.62%
